Assays:
Format in all cases: cell-based, rat
PC12 cells [1] = test: Bt2cAMP-induced neurite formation-promoting effect in PC12 cells; conditions: 0.5 mM Bt2cAMP; for neurite formation ratio / neurite formation-promoting effect: compound 0.05-5 μM, FIGS. 1 and 2; for neurite formation-promoting effect compared between compounds: comparison with β-sitosterol or campesterol
Experimental: Using rat adrenal medullary pheochromocytoma-derived PC12 cells (obtained from RIKEN BRC) as a neurodifferentiative model, β-sitosterol, stigmasterol and campesterol were evaluated in terms of the Bt2cAMP (dibutyryladenosine 3′,5′-cyclic monophosphate)-induced neurite formation-promoting effect thereof.
First, PC12 cells were floated on an RPMI-1640 medium (from Sigma Aldrich Corporation) containing 10% equine serum (inactivated), 5% bovine fetal serum (inactivated), 100 U/mL of penicillin G and 100 μg/mL of streptomycin, and well suspended therein so as to be single cells. The suspension of PC 12 cells were sowed on a collagen-coated 96-well plate in an amount of […] cells/90 μL/well, and incubated in a 5% CO2 vapor phase at 37° C. for 24 hours. After incubation, a Dulbecco PBS(−) (Dulbecco phosphate buffer physiological saline water not containing Ca and Mg) added with Bt2cAMP at a concentration of 10 mM, RPMI-1640 medium added with β-sitosterol at a different concentration, or RPMI-1640 medium not added with β-sitosterol was added to the culture medium in each well in an amount of 5 μL each, and further incubated for 24 hours. At that time, the final concentration of each reagent added to the medium in each well was 0.5 mM with no exception for Bt2cAMP, and was 0 μM, 0.05 μM, 0.1 μM, 0.5 μM, 1 μM or 5 μM for β-sitosterol. After incubation, the culture medium was removed from each well, and 1% glutaraldehyde-containing phosphate buffer (0.1 M, pH 7.2) was dispensed in each well in an amount of 100 μL/well, and then left as such for 20 minutes to fix the cells. Subsequently, the glutaraldehyde-containing phosphate buffer was removed from each well, then a Giemsa stain fluid was dispensed in an amount of 100 μL/well, and left as such for 2 to 3 minutes for staining. After staining, the Giemsa stain fluid was removed from each well, and the stained sample in each well was washed twice with ultra-pure water, and then dried.
The number of the positive cells relative to the total number of cells (the total number of cells judged to be positive or negative) was calculated as percentage to be a neurite formation ratio. Here, for positive or negative judgement, 300 to 400 cells/well were observed.
PC12 cells were incubated according to the same method as above except that stigmasterol or campesterol, or a comparative compound of cholesterol or progesterone was used in place of β-sitosterol, and the neurite formation ratio in each case was calculated.
Graphs were drawn by plotting the neurite formation ratio relative to the concentration of β-sitosterol, campesterol or cholesterol added to the culture medium of PC 12 cells, and shown in FIG. 1. Graphs were drawn by plotting the neurite formation ratio relative to the concentration of β-sitosterol, stigmasterol or progesterone added to the culture medium of PC 12 cells, and shown in FIG. 2. In FIGS. 1 and 2, the horizontal axis is a logarithmic scale. The neurite formation ratio is shown as SD, and SD is a standard deviation in the three tests carried out in the same manner. “*” indicates p<0.05, and “**” indicates p<0.01. The same shall apply to the expression of the neurite formation ratio in FIG. 3, as measured in the following experiment (b).

PC12 cells [2] = test: Cell toxicity test (Calcein-AM, number of living PC12 cells); conditions: 0.5 mM Bt2cAMP, β-sitosterol 0.05-5 μM, 24 hours; FIG. 4
Experimental: For confirming that the neurite formation-promoting effect of each compound recognized in the above-mentioned evaluations (a) and (b) is not caused by stress (cell toxicity) given to cells, the number of living PC12 cells incubated in a culture medium added with Bt2cAMP and β-sitosterol was evaluated using Calcein-AM (from Dojindo Molecular Technologies, Inc.). Calcein-AM is a cell membrane-permeable compound, and when taken in living cells, it is hydrolyzed with esterase to release calcein. […] Accordingly, after a group of cells were processed with Calcein-AM so as to make Calcein-AM taken by the living cells, and then the cells were disrupted to measure the fluorescence intensity by calcein, whereby the number of the living cells in the group of cells can be known. […]
The fluorescence intensity of the sample in each well processed as above was measured at an excitation wavelength of 485 nm and a detection wavelength of 527 nm. The data of the measured fluorescence intensity were plotted relative to the concentration of β-sitosterol added to the culture medium of PC12 cells, and the resultant graph is shown in FIG. 4. […] The fluorescence intensity is a relative value based on the actual value of the fluorescence intensity, 100%, measured in the system not added with β-sitosterol, and is shown as ±DS. […]

PC12 cells [3] = test: NGF-induced neurite formation-promoting effect in PC12 cells; conditions: 10 ng/mL NGF, β-sitosterol 0.05-5 μM, 48 hours; FIG. 3
Experimental: Here, NGF (nerve growth factor) differing from Bt2cAMP in point of signaling pathways was used as an inducing agent for neurite formation to evaluate the NGF-induced neurite formation-promoting effect of β-sitosterol.
Specifically, PC12 cells were incubated according to the same method as above except that an NGF-added Dulbecco PBS(−) was used in place of the Bt2cAMP-added Dulbecco PBS(−) and the incubation time for the PC12 cells after addition of NGF and β-sitosterol thereto was 48 hours, and the neurite formation ratio was calculated. The final concentration of each reagent added to the culture medium of PC12 cells in each well was 10 ng/mL with no exception for NGF, and was 0 μM, 0.05 μM, 0.1 μM, 0.5 μM, 1 μM or 5 μM for β-sitosterol. A graph was drawn by plotting the neurite formation ratio relative to the concentration of β-sitosterol added to the culture medium of PC 12 cells, and shown in FIG. 3.

PC12 cells [4] = test: NGF-inductive neural differentiation-promoting effect (neurofilament immunofluorescent staining); conditions: 10 ng/mL NGF, 0.5 μM β-sitosterol, 48 hours; FIG. 5
Experimental: A neurofilament was used as a neural differentiation marker. This was stained according to an immunofluorescent staining method for evaluating the neural differentiation promoting effect of β-sitosterol.
PC12 cells were floated in an RPMI-1640 medium containing 10% equine serum (inactivated), 5% bovine fetal serum (inactivated), 100 U/mL of penicillin G and 100 μg/mL of streptomycin and well suspended therein to be single cells of 1.4×10^4 cells/mL. The suspension of PC12 cells was sown in a collagen-coated 8-well chamber slide at 5.0×10^3 cells/360 μL/well, and incubated in a 5% CO2 vapor phase at 37° C. for 24 hours. After incubation, an NGF-added Dulbecco PBS(−) (NGF solution), and a β-sitosterol-added RPMI-1640 medium (β-sitosterol solution) were added to the medium in each well in an amount 20 μL/well each, and further incubated for 48 hours. At that time, the final concentration of each reagent added to the medium in each well was 10 ng/mL for NGF, and was 0.5 μM for β-sitosterol. After incubation, the medium was removed from each well, which was then washed with PBS(−) (phosphate buffer physiological saline water (not containing Ca and Mg)), processed with a 4% formaldehyde solution dispensed in each well for 30 minutes, and thereafter washed three times with PBS(−) for 3 minutes. […]

| Compound | neurite formation ratio / neurite formation-promoting effect (PC12 cells [1]; 24 hours) | neurite formation-promoting effect compared between compounds (PC12 cells [1]) | further results |
| --- | --- | --- | --- |
| CC(C)CCC[C@@H](C)[C@H]1CC[C@H]2[C@@H]3CC=C4C[C@@H](O)CC[C@]4(C)[C@H]3CC[C@]12C [cholesterol, reference compound] | not recognized to have a neurite formation-promoting effect | – | – |
| CC(=O)[C@H]1CC[C@H]2[C@@H]3CCC4=CC(=O)CC[C@]4(C)[C@H]3CC[C@]12C [Progesterone, progesterone, reference compound] | extremely weak | – | neurite formation ratio (PC12 cells [1]; compound added in an amount of 0.1 μM, 24 hours, FIG. 2): recognized to increase the neurite formation ratio |
| CC[C@H](CC[C@@H](C)C1CCC2C3CC=C4C[C@@H](O)CC[C@]4(C)C3CC[C@@]21C)C(C)C (stereo partly drawn) [β-sitosterol] | significantly increased | stronger neurite formation-promoting effect than the system added with campesterol | fluorescence intensity (calcein), relative to system not added with β-sitosterol (PC12 cells [2]): changed little; number of living cells (PC12 cells [2]): does not decrease; neurite formation ratio (PC12 cells [3]): significantly increased; neurofilaments (bright spots in FITC fluorescently-stained image) versus NGF alone (PC12 cells [4]): larger number of neurofilaments appeared |
| CC[C@H](/C=C/[C@@H](C)C1CCC2C3CC=C4C[C@@H](O)CC[C@]4(C)C3CC[C@@]21C)C(C)C (stereo partly drawn) [stigmasterol] | significantly increased | no difference in the neurite formation-promoting effect | – |
| CC(C)[C@H](C)CC[C@@H](C)[C@H]1CC[C@H]2[C@@H]3CC=C4C[C@@H](O)CC[C@]4(C)[C@H]3CC[C@]12C [campesterol] | significantly increased | – | – |
